Test results as given in the supplement of paper PMC10627819.

What was measured:
B. subtilis 168 [1] = assay: fitness (endpoint OD595 vs no drug) (fraction); higher = more growth
Method in brief: (§1)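 Fitness expresses the optical density reached at the stationary-phase transition as a fraction of the robust mean of no-drug control wells. It is capped at 1. Measurements were OD595 every 30 min for 14 h at 37 °C after inoculation of 384-well plates at OD595 0.01 (30 µl, or 55 µl for S. pneumoniae), minus the first reading.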

B. subtilis 168 [2] = assay: Bliss interaction score (quartile over a dose matrix) (fitness difference); higher = more antagonism (negative = synergy)
Method in brief: (§2)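 Fitness was defined as normalised growth: OD595 at the start of stationary phase divided by the plate's robust no-drug mean and capped at 1. Single-drug fitness was inferred from combination measurements. The Bliss score is observed fitness minus the product of the single-drug values, summarised by quartiles across technical, biological and donor/recipient replicates.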

S. aureus Newman = assay: as above
Method in brief: as §2

S. aureus DSM 20231 = assay: as above
Method in brief: as §2

S. pneumoniae D39V [3] = assay: as above
Method in brief: as §2

S. pneumoniae D39V [4] = assay: fitness (endpoint OD595 vs no drug) (fraction); higher = more growth
Method in brief: as §1
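Throughout, for Bliss interaction score (quartile over a dose matrix): first quartile when negative (synergy) and third quartile when positive (antagonism).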
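Throughout, for fitness (endpoint OD595 vs no drug): OD595 on entry to stationary phase over no-drug wells; at most 1.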

C[C@H]1COc2c(N3CCN(C)CC3)c(F)cc3c(=O)c(C(=O)O)cn1c23 [Levofloxacin] + COc1cc(Cc2cnc(N)nc2N)cc(OC)c1OC [Trimethoprim]
B. subtilis 168 [1], one replicate
Settings	fitness
first compound 0.001 µg/mL, partner 0.125 µg/mL	0.528
first compound 0.001 µg/mL, partner 0.25 µg/mL	0.41
first compound 0.001 µg/mL, partner 0.5 µg/mL	0.456
first compound 0.002 µg/mL, partner 0.1 µg/mL	0.907
first compound 0.002 µg/mL, partner 0.2 µg/mL	0.804
first compound 0.002 µg/mL, partner 0.4 µg/mL	0.572
first compound 0.0039 µg/mL, partner 0.1 µg/mL	0.884
first compound 0.0039 µg/mL, partner 0.2 µg/mL	0.745
first compound 0.0039 µg/mL, partner 0.4 µg/mL	0.548
first compound 0.0078 µg/mL, partner 0.1 µg/mL	0.872
first compound 0.0078 µg/mL, partner 0.125 µg/mL	0.736
first compound 0.0078 µg/mL, partner 0.2 µg/mL	0.696
first compound 0.0078 µg/mL, partner 0.4 µg/mL	0.521
first compound 0.0312 µg/mL, partner 1 µg/mL	0.0312
first compound 0.0312 µg/mL, partner 2 µg/mL	0.0414
first compound 0.0625 µg/mL, partner 1 µg/mL	0.0468
first compound 0.0625 µg/mL, partner 2 µg/mL	0.0379
first compound 0.125 µg/mL, partner 1 µg/mL	0.0309
first compound 0.125 µg/mL, partner 2 µg/mL	0.0616

fitness, B. subtilis 168 [1]
Settings	first compound 0.002 µg/mL	first compound 0.0039 µg/mL	first compound 0.0078 µg/mL	first compound 0.0312 µg/mL	first compound 0.0625 µg/mL	first compound 0.125 µg/mL
partner 0.125 µg/mL	0.554	0.564	–	–	–	–
partner 0.25 µg/mL	–	–	0.689	–	–	–
partner 0.5 µg/mL	0.423	0.414	0.494	0.0339	0.0357	0.0365

Settings	Bliss interaction score
B. subtilis 168 [2]	0.0693
S. aureus DSM 20231	-0.0537
S. aureus Newman	-0.109
S. pneumoniae D39V [3]	-0.112

CN(C)C(=O)C(CCN1CCC(O)(c2ccc(Cl)cc2)CC1)(c1ccccc1)c1ccccc1 [Loperamide] + C/C(=C\C(=O)OCCCCCCCCC(=O)O)C[C@@H]1OC[C@H](C[C@@H]2O[C@H]2[C@@H](C)[C@H](C)O)[C@@H](O)[C@H]1O [Pseudomonic acid]
fitness, S. pneumoniae D39V [4]
Settings	first compound 17.14 µg/mL	first compound 20 µg/mL	first compound 34.28 µg/mL	first compound 40 µg/mL	first compound 80 µg/mL
partner 0.03 µg/mL	≥ 1	0.9	0.99	0.961	0.845
partner 0.06 µg/mL	0.859	0.726	0.808	0.766	0.747
partner 0.12 µg/mL	0.686	0.544	0.632	0.569	0.509

S. pneumoniae D39V [4], first compound 68.57 µg/mL, one replicate
Settings	fitness
partner 0.03 µg/mL	≥ 1
partner 0.06 µg/mL	0.996
partner 0.12 µg/mL	0.663

Settings	Bliss interaction score
B. subtilis 168 [2]	-0.0528
S. aureus DSM 20231	0.0202
S. aureus Newman	0.0342
S. pneumoniae D39V [3]	0.121

CN(C)C(=O)C(CCN1CCC(O)(c2ccc(Cl)cc2)CC1)(c1ccccc1)c1ccccc1 [Loperamide] + CN[C@H](CC(C)C)C(=O)N[C@H]1C(=O)N[C@@H](CC(N)=O)C(=O)N[C@H]2C(=O)N[C@H]3C(=O)N[C@H](C(=O)N[C@H](C(=O)O)c4cc(O)cc(O)c4-c4cc3ccc4O)[C@H](O)c3ccc(c(Cl)c3)Oc3cc2cc(c3O[C@@H]2O[C@H](CO)[C@@H](O)[C@H](O)[C@H]2O[C@H]2C[C@](C)(N)[C@H](O)[C@H](C)O2)Oc2ccc(cc2Cl)[C@H]1O [Vancomycin]
S. pneumoniae D39V [4]
Settings	fitness
first compound 17.14 µg/mL, partner 0.5 µg/mL	0.0584
first compound 20 µg/mL, partner 0.03125 µg/mL	≥ 1
first compound 20 µg/mL, partner 0.0625 µg/mL	0.937
first compound 34.28 µg/mL, partner 0.25 µg/mL	0.77
first compound 34.28 µg/mL, partner 0.5 µg/mL	0.0876
first compound 40 µg/mL, partner 0.03125 µg/mL	0.959
first compound 40 µg/mL, partner 0.0625 µg/mL	0.866
first compound 80 µg/mL, partner 0.125 µg/mL	0.28

S. pneumoniae D39V [4], first compound 68.57 µg/mL, one replicate
Settings	fitness
partner 0.125 µg/mL	0.942
partner 0.25 µg/mL	0.853
partner 0.5 µg/mL	0.0639

Settings	Bliss interaction score
B. subtilis 168 [2]	-0.0281
S. aureus DSM 20231	-0.0861
S. aureus Newman	0.0922
S. pneumoniae D39V [3]	-0.184

CN(C)C(=O)C(CCN1CCC(O)(c2ccc(Cl)cc2)CC1)(c1ccccc1)c1ccccc1 [Loperamide] + CO[C@@H]1[C@@H](OC(N)=O)[C@@H](O)[C@H](Oc2ccc3c(O)c(NC(=O)c4ccc(O)c(CC=C(C)C)c4)c(=O)oc3c2C)OC1(C)C [Novobiocin]
B. subtilis 168 [1], first compound 25 µg/mL
Settings	fitness
partner 0.0125 µg/mL	0.889
partner 0.025 µg/mL	0.85
partner 0.05 µg/mL	0.86

fitness, B. subtilis 168 [1], one replicate
Settings	first compound 25 µg/mL	first compound 50 µg/mL	first compound 100 µg/mL
partner 0.125 µg/mL	0.703	0.028	0.0375
partner 0.25 µg/mL	0.274	0.0063	0.0267
partner 0.5 µg/mL	0.186	0.0466	0.0548

Settings	Bliss interaction score
B. subtilis 168 [2]	0.205
S. aureus DSM 20231	-0.0535
S. aureus Newman	-0.0759
S. pneumoniae D39V [3]	-0.113

CN(C)C(=O)C(CCN1CCC(O)(c2ccc(Cl)cc2)CC1)(c1ccccc1)c1ccccc1 [Loperamide] + CO[C@H]1/C=C/O[C@@]2(C)Oc3c(C)c(O)c4c(O)c(c(/C=N/N5CCN(C)CC5)c(O)c4c3C2=O)NC(=O)/C(C)=C\C=C\[C@H](C)[C@H](O)[C@@H](C)[C@@H](O)[C@@H](C)[C@H](OC(C)=O)[C@@H]1C [Rifampicin]
fitness, S. pneumoniae D39V [4]
Settings	first compound 17.14 µg/mL	first compound 34.28 µg/mL
partner 0.05 µg/mL	0.875	–
partner 0.2 µg/mL	0.145	0.136

fitness, S. pneumoniae D39V [4], one replicate
Settings	first compound 20 µg/mL	first compound 40 µg/mL	first compound 68.57 µg/mL	first compound 80 µg/mL
partner 0.025 µg/mL	0.92	0.921	–	0.701
partner 0.05 µg/mL	–	–	0.833	–
partner 0.1 µg/mL	–	–	0.544	–
partner 0.2 µg/mL	0	0	0.14	0

Settings	Bliss interaction score
B. subtilis 168 [2]	0.161
S. aureus DSM 20231	-0.0475
S. aureus Newman	0.012
S. pneumoniae D39V [3]	-0.0733

CN(C)C(=O)C(CCN1CCC(O)(c2ccc(Cl)cc2)CC1)(c1ccccc1)c1ccccc1 [Loperamide] + COc1cc(Cc2cnc(N)nc2N)cc(OC)c1OC [Trimethoprim]
fitness, B. subtilis 168 [1], one replicate
Settings	partner 0.1 µg/mL	partner 0.125 µg/mL	partner 0.2 µg/mL	partner 0.4 µg/mL	partner 1 µg/mL	partner 2 µg/mL
first compound 25 µg/mL	0.0203	0.525	0.0477	0.0288	0.0225	0.0222
first compound 50 µg/mL	0.0097	0.0833	0.0381	0.0129	0.0319	0.0248
first compound 100 µg/mL	0.0141	0.107	0.0463	0.0259	0.031	0.0361

fitness, B. subtilis 168 [1]
Settings	first compound 50 µg/mL	first compound 100 µg/mL
partner 0.25 µg/mL	0.201	0.0658
partner 0.5 µg/mL	0.0275	0.0239

Settings	Bliss interaction score
B. subtilis 168 [2]	-0.102
S. aureus DSM 20231	-0.0416
S. aureus Newman	0.0605
S. pneumoniae D39V [3]	0.274

CN(C)C(=O)C(CCN1CCC(O)(c2ccc(Cl)cc2)CC1)(c1ccccc1)c1ccccc1 [Loperamide] + Clc1ccc(COC(Cn2ccnc2)c2ccc(Cl)cc2Cl)c(Cl)c1 [Miconazole]
fitness, S. pneumoniae D39V [4]
Settings	partner 1.073 µg/mL	partner 1.25 µg/mL	partner 2.145 µg/mL	partner 2.5 µg/mL	partner 4.29 µg/mL	partner 5 µg/mL
first compound 17.14 µg/mL	–	0.963	–	0.954	–	0.933
first compound 20 µg/mL	≥ 1	–	≥ 1	–	0.926	–
first compound 34.28 µg/mL	–	0.884	–	0.907	–	0.925
first compound 40 µg/mL	≥ 1	–	0.955	–	0.731	–

S. pneumoniae D39V [4], first compound 68.57 µg/mL, one replicate
Settings	fitness
partner 1.25 µg/mL	0.857
partner 2.5 µg/mL	0.85
partner 5 µg/mL	0.923

Settings	Bliss interaction score
B. subtilis 168 [2]	-0.136
S. aureus DSM 20231	0.0862
S. aureus Newman	-0.158
S. pneumoniae D39V [3]	-0.0772

CN(C)C(=O)C(CCN1CCC(O)(c2ccc(Cl)cc2)CC1)(c1ccccc1)c1ccccc1 [Loperamide] + Cn1nnc(-c2ccc(-c3ccc(N4C[C@H](CO)OC4=O)cc3F)cn2)n1 [Tedizolid]
fitness, S. pneumoniae D39V [4]
Settings	first compound 17.14 µg/mL	first compound 20 µg/mL	first compound 34.28 µg/mL	first compound 40 µg/mL	first compound 80 µg/mL
partner 0.03125 µg/mL	–	0.997	–	≥ 1	≥ 1
partner 0.0625 µg/mL	–	≥ 1	–	≥ 1	≥ 1
partner 0.125 µg/mL	0.933	0.908	0.961	0.94	0.976
partner 0.5 µg/mL	0.532	–	0.529	–	–

S. pneumoniae D39V [4], first compound 68.57 µg/mL, one replicate
Settings	fitness
partner 0.125 µg/mL	0.979
partner 0.25 µg/mL	0.963
partner 0.5 µg/mL	0.468

Settings	Bliss interaction score
B. subtilis 168 [2]	0.06
S. aureus DSM 20231	0.198
S. aureus Newman	0.102
S. pneumoniae D39V [3]	0.243

CN(C)C(=O)C(CCN1CCC(O)(c2ccc(Cl)cc2)CC1)(c1ccccc1)c1ccccc1 [Loperamide] + O=C1CN(/N=C/c2ccc([N+](=O)[O-])o2)C(=O)N1 [Nitrofurantoin]
S. pneumoniae D39V [4]
Settings	fitness
first compound 17.14 µg/mL, partner 2 µg/mL	0.906
first compound 17.14 µg/mL, partner 4 µg/mL	0.924
first compound 17.14 µg/mL, partner 8 µg/mL	0.856
first compound 20 µg/mL, partner 1.285 µg/mL	≥ 1
first compound 20 µg/mL, partner 2.57 µg/mL	0.98
first compound 34.28 µg/mL, partner 2 µg/mL	0.904
first compound 34.28 µg/mL, partner 4 µg/mL	0.941
first compound 34.28 µg/mL, partner 8 µg/mL	0.883
first compound 40 µg/mL, partner 1.285 µg/mL	≥ 1
first compound 40 µg/mL, partner 2.57 µg/mL	0.981
first compound 80 µg/mL, partner 1.285 µg/mL	0.805
first compound 80 µg/mL, partner 2.57 µg/mL	0.821

S. pneumoniae D39V [4], one replicate
Settings	fitness
first compound 20 µg/mL, partner 5.14 µg/mL	≥ 1
first compound 40 µg/mL, partner 5.14 µg/mL	≥ 1
first compound 68.57 µg/mL, partner 2 µg/mL	0.901
first compound 68.57 µg/mL, partner 4 µg/mL	0.914
first compound 68.57 µg/mL, partner 8 µg/mL	0.851
first compound 80 µg/mL, partner 5.14 µg/mL	0.806

Settings	Bliss interaction score
B. subtilis 168 [2]	0.0384
S. aureus DSM 20231	0.0206
S. aureus Newman	0.045
S. pneumoniae D39V [3]	0.106

CCN(CC)CCOC(=O)c1ccc(N)cc1 [Procaine] + CO[C@H]1/C=C/O[C@@]2(C)Oc3c(C)c(O)c4c(O)c(c(/C=N/N5CCN(C)CC5)c(O)c4c3C2=O)NC(=O)/C(C)=C\C=C\[C@H](C)[C@H](O)[C@@H](C)[C@@H](O)[C@@H](C)[C@H](OC(C)=O)[C@@H]1C [Rifampicin]
S. pneumoniae D39V [4], partner 0.025 µg/mL, one replicate
Settings	fitness
first compound 85.5 µg/mL	0.903
first compound 171 µg/mL	0.875
first compound 342 µg/mL	0.919

fitness, S. pneumoniae D39V [4]
Settings	first compound 85.5 µg/mL	first compound 171 µg/mL	first compound 342 µg/mL
partner 0.05 µg/mL	0.927	0.909	0.984
partner 0.2 µg/mL	0.102	0.0616	0.132

Settings	Bliss interaction score
B. subtilis 168 [2]	-0.0578
S. aureus DSM 20231	-0.054
S. aureus Newman	-0.0206
S. pneumoniae D39V [3]	0.0704
